The record followed here is patent US9617264B2, “2,7-diazaspiro[3.5]nonane compounds” (REMYND NV, priority 2014, dated 2017).

The term EC50 denotes the concentration at which the effect is half-maximal.

One experiment has as its system M17_3SYN cells. Description: Paraquat-induced cytotoxicity (LDH) in α-synuclein over-expressing M17_3SYN neuroblastoma cells. The conditions noted are these: Homo sapiens, Neuroblastoma cell, 48 h, 6 mM Paraquat, 2 days, LDH toxicity inhibition, read-out: SYN EC50. It counts as cell-based. From the text:
A α-synuclein expression plasmid was constructed by subcloning the NcoI/XhoI fragment from 212T-SYN(WT) (Griffioen et al., Biochem Biophys Acta (2006) 1762(3):312-318) containing the cDNA of human wild type α-synuclein correspondingly into a standard mammalian expression vector pcDNA3.1 resulting in plasmid pcDNA3.1-SYNwt. Plasmids pcDNA3.1 and pcDNA3.1-SYNwt were transfected into human neuroblastoma cells (BE-M17; ATCC No. CRL-2267™) using lipofectamine reagent and subsequently, independent clonal cell lines with the plasmids stably integrated into the genome were selected by antibiotic resistance selection (Geneticin (G418)), resulting in cell lines M17.pcDNA3 and M17_3SYN. Overexpression of α-synuclein in the M17_3SYN cell line was confirmed by Western blot analysis.
Due to the high levels of α-synuclein, M17_3SYN cells were sensitive to paraquat, a well-known risk factor Parkinson's disease and of synuclein-dependent neuronal degeneration. Cytotoxicity of cells was measured by quantification of lactate dehydrogenase (LDH) levels. In dead cells, LDH leaked out of the cells into the medium due to a loss of plasma-membrane integrity.
Three days preceding the experiment, primary pre-cultures of M17.pcDNA3 (as possible control) and M17_3SYN cells were prepared, starting from a stock culture, at a density of 20.000-40.000 cells/cm2 in culture medium (Opti-MEM® Reduced Serum Medium with Phenol Red (Invitrogen, Cat. 31985-047) supplemented with 10% FCS, 1 mM sodium pyruvate, 1×NEAA, 500 μg/ml G418 and 0.5× antibiotic/antimycotic (ABAM)). 3 days later these primary pre-cultures were used as a starting point to make secondary pre-cultures at a density of 50.000-100.000 cells/cm^2. At the day of the experiment these secondary precultures were diluted to ˜0.5·10^6 cells/ml in detection medium (Opti-MEM® Reduced-Serum Medium without Phenol Red (Invitrogen, Cat. 11085-021) supplemented with 10% FCS, 1 mM sodium pyruvate, 1×NEAA, 500 μg/ml G418 and 0.5×ABAM) and 60 μL of this suspension was dispensed per well into a 96-well microtiter plate. After 3 hours of incubation at 37° C./5% CO2 an equal volume of detection medium containing a final concentration of 6 mM Paraquat was added and subsequently incubated for 2 days at 37° C./5% CO2. Then LDH activity was determined using the Promega Cytotox 96 Non-Radioactive cytotoxicity assay (Promega, Cat. G1780), according to the manufacturer's instructions. Cytotoxicity was defined as the ratio of LDH relative to the total LDH in the cells and supernatant.
The assay described above using the M17_3SYN cell line allowed screening compounds for their ability to decrease cytotoxicity in PQ-challenged cells. Compounds of the invention were tested for their ability to decrease toxicity at different concentrations, ranging from low non-effective concentrations to high effective concentrations. Afterwards, a dose-dependent inhibition curve was used to calculate the EC50. A compound was considered to be active in this test when it inhibited toxicity by more than 20% relative to untreated M17_3SYN cells at a concentration of […] or lower.

The test system of the next experiment is INS-1E cells. Briefly: Cytokine-induced apoptosis (caspase-3/7 activation, Caspase-Glo 3/7) in INS-1E rat insulinoma cells. It counts as cell-based. The settings on record: cytokine mix (IFN-γ, IL-1, TNF-α), 24 hours, caspase 3/7 activity, read-out: CYT EC50. An excerpt: The INS-1E cell line, a rat insulinoma cell line, has been characterized extensively. INS-1E cells respond to glucose by secreting insulin and, unlike most other immortalized n-cell lines, they do this in a consistent manner over time. The cells are sensitive to hyperglycemia-, free fatty acid (FFA)-, and cytokine-induced stress. Prolonged stress ultimately leads to induction of apoptotic pathways and, if stress is not counter-acted, to apoptosis. Caspase-3 and -7 play a central role downstream where various apoptotic pathways merge. As such, activation (i.e. cleavage) of these caspases forms a relevant primary read-out to evaluate protective activity of compounds against stress-induced apoptosis.
To evaluate the efficacy of different compounds to prevent induction of apoptosis, an in vitro screen was developed in which INS-1E cells were exposed to a cytokine mix (IFN-γ, 5 ng/ml; IL-1, 20 pg/ml; TNF-α, 0.25 ng/ml). The degree of induction of apoptosis was evaluated using a substrate for cleaved caspase-3 and -7, i.e. a proluminescent caspase-3/7 DEVD aminoluciferin substrate with a thermostable luciferase (Caspase-Glo® 3/7 assay; Promega, cat. G8092).
On day 0, INS-1E cells were plated in a white-walled 96-well microplate (Greiner, cat. 655098) at 20,000 cells per well in 100 μl complete medium (RPMI containing 11 mM glucose supplemented with 5% FCS, 100 IU/ml penicillin, 100 μg/ml streptomycin, 10 mM HEPES, 1 mM Sodium Pyruvate and 50 μM 2-Mercapto-ethanol). On day 2, 100 μl medium containing cytokines and compound dissolved in DMSO was added to the cells. Wells without cytokines containing DMSO and wells with cytokines and DMSO were included to evaluate the degree of caspase 3/7 activation by the cytokine mix. After 24 hours exposure to cytokines and/or compound, Caspase-Glo® 3/7 reagent was added to the cells and caspase activity was determined by measuring luminescence.
To evaluate compound efficacy, the “toxicity window” was calculated by subtracting caspase activity of wells without stressor from activity of wells with stressor but without compound. The amount of caspase activity in the latter wells was normalized to 1 and used as reference. Subsequently, caspase activity in the wells with stressor and varying concentrations of compound was calculated relative to the wells without compound. Plotting caspase activity vs the log 10 of the concentration of compound permitted calculation of the EC50 values for the compounds which typically lied between 0.0001 and 10 μM. Compounds with an EC50<10 μM were considered active.

Take `COc1ccc(S(=O)(=O)N2CCC3(CC2)CN(S(=O)(=O)c2ccc(Cl)cc2)C3)cc1` [Cmpd005, 2-((4-Chlorophenyl)sulfonyl)-7-((4-methoxyphenyl)sulfonyl)-2,7-diazaspiro[3.5]nonane]: the EC50 in the experiment on M17_3SYN cells turned out to be 6.4 nM; in the experiment with INS-1E cells it was 20 nM.

Regarding `CCC(C(=O)N1CC2(CCN(S(=O)(=O)c3ccc(OC)cc3)CC2)C1)c1ccccc1` (centres unmarked) [Cmpd011, 1-(7-((4-Methoxyphenyl)sulfonyl)-2,7-diazaspiro[3.5]nonan-2-yl)-2-phenylbutan-1-one], the EC50 in the experiment on M17_3SYN cells was 66.4 nM; in the experiment with INS-1E cells, 248 nM.

Take `COc1ccc(S(=O)(=O)N2CCC3(CC2)CN(C(=O)C2(c4ccccc4)CC2)C3)cc1` [Cmpd014, (7-((4-Methoxyphenyl)sulfonyl)-2,7-diazaspiro[3.5]nonan-2-yl)(1-phenylcyclopropyl)methanone]: the EC50 with M17_3SYN cells was 56.8 nM; with INS-1E cells, 34 nM.

For the molecule `COc1ccc(S(=O)(=O)N2CCC3(CC2)CN(C(=O)CCc2ccc(F)cc2)C3)cc1` [Cmpd015, 3-(4-Fluorophenyl)-1-(7-((4-methoxyphenyl)sulfonyl)-2,7-diazaspiro[3.5]nonan-2-yl)propan-1-one], the EC50 came to 535 nM with M17_3SYN cells and 31 nM in the experiment on INS-1E cells.

Turning to `COc1ccc(S(=O)(=O)N2CCC3(CC2)CN(C(=O)C(C)(O)c2ccccn2)C3)cc1` (centres unmarked) [Cmpd018, 2-Hydroxy-1-(7-((4-methoxyphenyl)sulfonyl)-2,7-diazaspiro[3.5]nonan-2-yl)-2-(pyridin-2-yl)propan-1-one], the results for the concentration for a half-maximal effect (EC50) with M17_3SYN cells and in the experiment with INS-1E cells were 241 nM and 58 nM, respectively.

Consider `COc1ccc(C(C)C(=O)N2CC3(CCN(S(=O)(=O)c4ccc(OC)cc4)CC3)C2)cc1` (centres unmarked) [Cmpd019, 2-(4-Methoxyphenyl)-1-(7-((4-methoxyphenyl)sulfonyl)-2,7-diazaspiro[3.5]nonan-2-yl)propan-1-one], for which the concentration giving a half-maximal response (EC50) worked out at 95.3 nM in the experiment on M17_3SYN cells and 54 nM with INS-1E cells.

On to `COc1ccc(S(=O)(=O)N2CCC3(CC2)CN(C(=O)C(C)(C)c2ccccc2C)C3)cc1` [Cmpd020, 1-(7-((4-Methoxyphenyl)sulfonyl)-2,7-diazaspiro[3.5]nonan-2-yl)-2-methyl-2-(o-tolyl)propan-1-one], for which the EC50 in the experiment with M17_3SYN cells amounted to 14.3 nM; in the experiment with INS-1E cells, 43 nM.

As for `COc1ccc(S(=O)(=O)N2CCC3(CC2)CN(C(=O)[C@H](c2ccc(F)cc2)C(C)C)C3)cc1` [Cmpd022, (S)-2-(4-fluorophenyl)-1-(7-((4-methoxyphenyl)sulfonyl)-2,7-diazaspiro[3.5]nonan-2-yl)-3-methylbutan-1-one], the results for the EC50 with M17_3SYN cells and with INS-1E cells were 28.7 nM and 108 nM, respectively.

On to `COc1ccc(S(=O)(=O)N2CCC3(CC2)CN(C(=O)C(C)c2ccccc2OC)C3)cc1` (centres unmarked) [Cmpd023, 2-(2-Methoxyphenyl)-1-(7-((4-methoxyphenyl)sulfonyl)-2,7-diazaspiro[3.5]nonan-2-yl)propan-1-one], for which the EC50 in the experiment on M17_3SYN cells is 39 nM; with INS-1E cells, 19 nM.

`COc1ccc(S(=O)(=O)N2CCC3(CC2)CN(C(=O)C(C)(C)c2ccccc2OC)C3)cc1` [Cmpd024, 2-(2-Methoxyphenyl)-1-(7-((4-methoxyphenyl)sulfonyl)-2,7-diazaspiro[3.5]nonan-2-yl)-2-methylpropan-1-one]: the EC50 was determined as 81.5 nM in the experiment on M17_3SYN cells and 63 nM in the experiment on INS-1E cells.

Take `COc1ccc(S(=O)(=O)N2CCC3(CC2)CN(C(=O)C2CCCc4ccccc42)C3)cc1` (centres unmarked) [Cmpd025, (7-((4-Methoxyphenyl)sulfonyl)-2,7-diazaspiro[3.5]nonan-2-yl)(1,2,3,4-tetrahydronaphthalen-1-yl)methanone]: the EC50 with M17_3SYN cells is 65.3 nM; in the experiment on INS-1E cells it was 616 nM.

Consider `COc1ccc(S(=O)(=O)N2CCC3(CC2)CN(C(=O)C(C)c2ccc(Cl)cc2)C3)cc1` (centres unmarked) [Cmpd026, 2-(4-Chlorophenyl)-1-(7-((4-methoxyphenyl)sulfonyl)-2,7-diazaspiro[3.5]nonan-2-yl)propan-1-one], for which the EC50 in the experiment on M17_3SYN cells is 131 nM; with INS-1E cells, 88 nM.

With `COc1ccc(S(=O)(=O)N2CCC3(CC2)CN(C(=O)C(C)(C)c2ccc(Cl)cc2)C3)cc1` [Cmpd027, 2-(4-Chlorophenyl)-1-(7-((4-methoxyphenyl)sulfonyl)-2,7-diazaspiro[3.5]nonan-2-yl)-2-methylpropan-1-one], the EC50 stood at 14.8 nM in the experiment on M17_3SYN cells and 181 nM with INS-1E cells.

Regarding `COc1ccc(S(=O)(=O)N2CCC3(CC2)CN(C(=O)C2(c4ccccc4)CCCC2)C3)cc1` [Cmpd028, (7-((4-Methoxyphenyl)sulfonyl)-2,7-diazaspiro[3.5]nonan-2-yl)(1-phenylcyclopentyl)methanone], the EC50 in the experiment with M17_3SYN cells turned out to be 22 nM; in the experiment with INS-1E cells it was 29 nM.

Consider `COc1ccc(S(=O)(=O)N2CCC3(CC2)CN(C(=O)C(C)c2cc(F)cc(F)c2)C3)cc1` (centres unmarked) [Cmpd029, 2-(3,5-Difluorophenyl)-1-(7-((4-methoxyphenyl)sulfonyl)-2,7-diazaspiro[3.5]nonan-2-yl)propan-1-one], for which the EC50 in the experiment on M17_3SYN cells came out at 189 nM; in the experiment with INS-1E cells, 57 nM.

`COc1ccc(S(=O)(=O)N2CCC3(CC2)CN(C(=O)C(C)(C)c2cccc(Cl)c2)C3)cc1` [Cmpd030, 2-(3-Chlorophenyl)-1-(7-((4-methoxyphenyl)sulfonyl)-2,7-diazaspiro[3.5]nonan-2-yl)-2-methylpropan-1-one]: the half-maximal effective concentration (EC50) with M17_3SYN cells was 5 nM; with INS-1E cells, 134 nM.

Turning to `COc1ccc(S(=O)(=O)N2CCC3(CC2)CN(c2nc(CC(F)(F)F)ns2)C3)cc1` [Cmpd031, 5-(7-((4-Methoxyphenyl)sulfonyl)-2,7-diazaspiro[3.5]nonan-2-yl)-3-(2,2,2-trifluoroethyl)-1,2,4-thiadiazole], the EC50 in the experiment on M17_3SYN cells amounted to 121 nM; in the experiment with INS-1E cells, 149 nM.

Take `CC(=O)Nc1ccc(S(=O)(=O)N2CCC3(CC2)CN(c2nc(Cc4ccc(F)cc4)ns2)C3)cc1` [Cmpd058, N-(4-((2-(3-(4-fluorobenzyl)-1,2,4-thiadiazol-5-yl)-2,7-diazaspiro[3.5]nonan-7-yl)sulfonyl)phenyl)acetamide]: the EC50 with M17_3SYN cells was found to be 290 nM; with INS-1E cells it was 22 nM.

As for `CS(=O)(=O)c1cccc(S(=O)(=O)N2CCC3(CC2)CN(c2nc(Cc4ccc(F)cc4)ns2)C3)c1` [Cmpd082, 3-(4-Fluorobenzyl)-5-(7-((3-(methylsulfonyl)phenyl)sulfonyl)-2,7-diazaspiro[3.5]nonan-2-yl)-1,2,4-thiadiazole], the EC50 in the experiment with M17_3SYN cells stood at 477 nM; in the experiment with INS-1E cells, 34 nM.
